This assay deals with MV-4-11 cells. The assay can be described thus: Gene expression microarray analysis (Affymetrix PrimeView) and GSEA. More on the design: RFU PODN (11730768_x_at) / Fold change /veh PODN (11730768_x_at) / RFU LINC00158 (11744669_a_at) / Fold change /veh LINC00158 (11744669_a_at) / RFU DUSP10 (11751237_a_at) / Fold change /veh DUSP10 (11751237_a_at) / RFU ID3 (11757404_x_at) / Fold change /veh ID3 (11757404_x_at) / RFU PLEKHG5 (11737974_s_at) / Fold change /veh PLEKHG5 (11737974_s_at) / RFU LRRC4B (11730491_at) / Fold change /veh LRRC4B (11730491_at) / RFU GIMAP4 (11747438_a_at) / Fold change /veh GIMAP4 (11747438_a_at) / RFU KRT8 (11758183_x_at) / Fold change /veh KRT8 (11758183_x_at) / RFU CNN1 (11734310_a_at) / Fold change /veh CNN1 (11734310_a_at) / RFU VPS37D (11726825_at) / Fold change /veh VPS37D (11726825_at) / RFU C10orf10 (11716522_x_at) / Fold change /veh C10orf10 (11716522_x_at) / RFU KIR2DL2 /// KIR2DL4 /// KIR2DL5A /// KIR2DL5B /// KIR2DS1 /// KIR2DS2 /// KIR2DS3 /// KIR2DS4 /// KIR3DL3 /// KIR3DL3 /// KIR3DS1 (11738374_at) / Fold change /veh KIR2DL2 /// KIR2DL4 /// KIR2DL5A /// KIR2DL5B /// KIR2DS1 /// KIR2DS2 /// KIR2DS3 /// KIR2DS4 /// KIR3DL3 /// KIR3DL3 /// KIR3DS1 (11738374_at) / RFU C1QL1 (11718748_at) / Fold change /veh C1QL1 (11718748_at) / RFU TMPRSS4 (11747572_a_at) / Fold change /veh TMPRSS4 (11747572_a_at) / RFU HAMP (11756126_x_at) / Fold change /veh HAMP (11756126_x_at) / RFU RNFT2 (11725882_a_at) / Fold change /veh RNFT2 (11725882_a_at) / RFU NR4A2 (11747474_a_at) / Fold change /veh NR4A2 (11747474_a_at) / RFU ABCC12 (11746883_a_at) / Fold change /veh ABCC12 (11746883_a_at) / RFU TMEM136 (11760407_x_at) / Fold change /veh TMEM136 (11760407_x_at) / RFU CLDN22 /// WWC2 (11732394_at) / Fold change /veh CLDN22 /// WWC2 (11732394_at) / RFU HLA-DPB1 (11760878_x_at) / Fold change /veh HLA-DPB1 (11760878_x_at) / RFU SPINT1 (11716480_a_at) / Fold change /veh SPINT1 (11716480_a_at) / RFU GAP43 (11754022_s_at) / Fold change /veh GAP43 (11754022_s_at) / RFU A4GNT (11735810_at) / Fold change /veh A4GNT (11735810_at) / RFU PRB3 (11715151_x_at) / Fold change /veh PRB3 (11715151_x_at) / RFU TUBB4B (11761932_at) / Fold change /veh TUBB4B (11761932_at) / RFU CAPN14 (11732068_a_at) / Fold change /veh CAPN14 (11732068_a_at) / RFU TMCC2 (11721928_a_at) / Fold change /veh TMCC2 (11721928_a_at) / RFU IRGQ (11745062_a_at) / Fold change /veh IRGQ (11745062_a_at) / RFU FAM174B (11720279_a_at) / Fold change /veh FAM174B (11720279_a_at) / RFU TMPRSS4 (11748680_a_at) / Fold change /veh TMPRSS4 (11748680_a_at) / RFU FAM212B (11763350_a_at) / Fold change /veh FAM212B (11763350_a_at) / RFU PLEKHG5 (11743358_a_at) / Fold change /veh PLEKHG5 (11743358_a_at) / RFU ZSCAN30 (11745921_a_at) / Fold change /veh ZSCAN30 (11745921_a_at) / RFU CMKLR1 (11741424_a_at) / Fold change /veh CMKLR1 (11741424_a_at) / RFU LOC101060620 /// MAPK8IP1 (11723275_at) / Fold change /veh LOC101060620 /// MAPK8IP1 (11723275_at) / RFU SPTSSB (11747773_x_at) / Fold change /veh SPTSSB (11747773_x_at) / RFU PRSS12 (11739890_at) / Fold change /veh PRSS12 (11739890_at) / RFU BIN1 (11741810_x_at) / Fold change /veh BIN1 (11741810_x_at) / RFU WNT11 (11732464_a_at) / Fold change /veh WNT11 (11732464_a_at) / RFU C10orf10 (11716521_a_at) / Fold change /veh C10orf10 (11716521_a_at) / RFU C5orf56 (11738089_at) / Fold change /veh C5orf56 (11738089_at) / RFU CYB561 (11721691_x_at) / Fold change /veh CYB561 (11721691_x_at) / RFU ANKRD19P (11752326_a_at) / Fold change /veh ANKRD19P (11752326_a_at) / RFU OR2T12 /// OR2T33 /// OR2T8 (11738714_s_at) / Fold change /veh OR2T12 /// OR2T33 /// OR2T8 (11738714_s_at) / RFU VCAN (11748164_a_at) / Fold change /veh VCAN (11748164_a_at) / RFU JSRP1 (11732532_at) / Fold change /veh JSRP1 (11732532_at) / RFU KRTAP10-11 (11738290_x_at) / Fold change /veh KRTAP10-11 (11738290_x_at) / RFU MYO3A (11730013_a_at) / Fold change /veh MYO3A (11730013_a_at) / RFU EBF3 (11725865_a_at) / Fold change /veh EBF3 (11725865_a_at) / RFU CAMK2N1 (11719241_x_at) / Fold change /veh CAMK2N1 (11719241_x_at) / RFU C5orf56 (11738088_a_at) / Fold change /veh C5orf56 (11738088_a_at) / RFU OLFML3 (11715873_a_at) / Fold change /veh OLFML3 (11715873_a_at) / RFU LOC100653217 /// NTM (11731650_a_at) / Fold change /veh LOC100653217 /// NTM (11731650_a_at) / RFU MAPK11 (11762145_a_at) / Fold change /veh MAPK11 (11762145_a_at) / RFU FIZ1 (11724087_x_at) / Fold change /veh FIZ1 (11724087_x_at) / RFU OASL (11726364_x_at) / Fold change /veh OASL (11726364_x_at) / RFU SOX15 (11748057_x_at) / Fold change /veh SOX15 (11748057_x_at) / RFU CD79A (11719716_a_at) / Fold change /veh CD79A (11719716_a_at) / RFU HIST1H1D (11736915_at) / Fold change /veh HIST1H1D (11736915_at) / RFU CASKIN2 (11723855_a_at) / Fold change /veh CASKIN2 (11723855_a_at) / RFU LOC730098 (11760151_x_at) / Fold change /veh LOC730098 (11760151_x_at) / RFU OR4N2 (11742367_at) / Fold change /veh OR4N2 (11742367_at) / RFU PRRT2 (11749266_a_at) / Fold change /veh PRRT2 (11749266_a_at) / RFU SNX32 (11753110_a_at) / Fold change /veh SNX32 (11753110_a_at) / RFU CDHR5 (11726645_a_at) / Fold change /veh CDHR5 (11726645_a_at) / RFU RCAN1 (11760418_a_at) / Fold change /veh RCAN1 (11760418_a_at) / RFU FAM167A (11723789_a_at) / Fold change /veh FAM167A (11723789_a_at) / RFU FAM26E (11764081_at) / Fold change /veh FAM26E (11764081_at) / RFU ISYNA1 (11749810_s_at) / Fold change /veh ISYNA1 (11749810_s_at) / RFU ACY1 (11761880_at) / Fold change /veh ACY1 (11761880_at) / RFU 11764098_at / Fold change /veh 11764098_at / RFU SAMD14 (11745864_x_at) / Fold change /veh SAMD14 (11745864_x_at) / RFU NPB (11741838_a_at) / Fold change /veh NPB (11741838_a_at) / RFU TMPRSS6 (11731388_a_at) / Fold change /veh TMPRSS6 (11731388_a_at) / RFU KRTAP10-2 (11738614_at) / Fold change /veh KRTAP10-2 (11738614_at) / RFU ARHGAP8 /// PRR5-ARHGAP8 (11727945_x_at) / Fold change /veh ARHGAP8 /// PRR5-ARHGAP8 (11727945_x_at) / RFU KRTAP5-7 /// NADSYN1 (11734609_at) / Fold change /veh KRTAP5-7 /// NADSYN1 (11734609_at) / RFU RASL12 (11751679_a_at) / Fold change /veh RASL12 (11751679_a_at) / RFU CDKN2B (11736163_a_at) / Fold change /veh CDKN2B (11736163_a_at) / RFU PRF1 (11729649_at) / Fold change /veh PRF1 (11729649_at) / RFU, ZNF638 /// ZNF638-IT1 / Fold change vs veh, ZNF638 /// ZNF638-IT1 / RFU, PANK3 / Fold change vs veh, PANK3 / RFU, SH3YL1 / Fold change vs veh, SH3YL1 / RFU, ZEB2 / Fold change vs veh, ZEB2 / RFU, NRIP1 / Fold change vs veh, NRIP1 / RFU, PTTG1IP / Fold change vs veh, PTTG1IP / RFU, CAPN2 / Fold change vs veh, CAPN2 / RFU, MED14 / Fold change vs veh, MED14 / RFU, SNORA58 / Fold change vs veh, SNORA58 / RFU, C1orf63 / Fold change vs veh, C1orf63 / RFU, LRRFIP1 / Fold change vs veh, LRRFIP1 / RFU, NDUFAF7 / Fold change vs veh, NDUFAF7 / RFU, SLC12A2 / Fold change vs veh, SLC12A2 / RFU, IBTK / Fold change vs veh, IBTK / RFU, ESF1 / Fold change vs veh, ESF1 / Fold change vs veh, TMEM50B / RFU, TAOK1 / Fold change vs veh, TAOK1 / RFU, ACBD3 / Fold change vs veh, ACBD3 / RFU, TMA16 / Fold change vs veh, TMA16 / RFU, RWDD3 / Fold change vs veh, RWDD3 / RFU, BCAT1 / Fold change vs veh, BCAT1 / RFU, EDEM3 / Fold change vs veh, EDEM3 / RFU, TMEM33 / Fold change vs veh, TMEM33 / RFU, WDR75 / Fold change vs veh, WDR75 / RFU, AHCTF1 / Fold change vs veh, AHCTF1 / RFU, TFRC / Fold change vs veh, TFRC / RFU, ZDHHC17 / Fold change vs veh, ZDHHC17 / RFU, NOM1 / Fold change vs veh, NOM1 / RFU, ARL8B / Fold change vs veh, ARL8B / RFU, ZBTB11 / Fold change vs veh, ZBTB11 / RFU, TAMM41 / Fold change vs veh, TAMM41 / RFU, KIAA1704 /// LOC100996395 / Fold change vs veh, KIAA1704 /// LOC100996395 / RFU, ING1 / Fold change vs veh, ING1 / RFU, TRMT61B / Fold change vs veh, TRMT61B / RFU, FUBP3 / Fold change vs veh, FUBP3 / RFU, TP53 / Fold change vs veh, TP53 / RFU, TNKS2 / Fold change vs veh, TNKS2 / RFU, ZFP14 / Fold change vs veh, ZFP14 / RFU, ACTR2 / Fold change vs veh, ACTR2 / RFU, PPP3R1 / Fold change vs veh, PPP3R1 / RFU, PIK3R1 / Fold change vs veh, PIK3R1 / RFU, HNRNPA1 / Fold change vs veh, HNRNPA1 / RFU, RNF170 / Fold change vs veh, RNF170 / RFU, ZNF28 / Fold change vs veh, ZNF28 / RFU, RNGTT / Fold change vs veh, RNGTT / RFU, OGT / Fold change vs veh, OGT / RFU, BRD1 / Fold change vs veh, BRD1 / RFU, MARS / Fold change vs veh, MARS / RFU, ZNF655 / Fold change vs veh, ZNF655 / RFU, FAHD1 / Fold change vs veh, FAHD1 / RFU, BDP1 / Fold change vs veh, BDP1 / RFU, LRRCC1 / Fold change vs veh, LRRCC1 / RFU, ARID1A / Fold change vs veh, ARID1A / RFU, ZNF146 / Fold change vs veh, ZNF146 / RFU, ZNF330 / Fold change vs veh, ZNF330 / RFU, GPN3 / Fold change vs veh, GPN3 / RFU, C9orf123 / Fold change vs veh, C9orf123 / RFU, N4BP2L2 / Fold change vs veh, N4BP2L2 / RFU, ARFIP1 / Fold change vs veh, ARFIP1 / RFU, FAM179B / Fold change vs veh, FAM179B / RFU, BCL10 / Fold change vs veh, BCL10 / RFU, UHRF1BP1L / Fold change vs veh, UHRF1BP1L / RFU, BET1 / Fold change vs veh, BET1 / RFU, CNOT2 / Fold change vs veh, CNOT2 / RFU, ZNF268 / Fold change vs veh, ZNF268 / Fold change vs veh, ZNF507 / RFU, DGCR2 / Fold change vs veh, DGCR2 / RFU, WDSUB1 / Fold change vs veh, WDSUB1 / Fold change vs veh, HSP90B1 /// MIR3652 / RFU, ADSS / Fold change vs veh, ADSS / RFU, GK / Fold change vs veh, GK / RFU, ZNF148 / Fold change vs veh, ZNF148 / RFU, TAF9 / Fold change vs veh, TAF9 / RFU, SLC1A5 / Fold change vs veh, SLC1A5 / RFU, SLMO2 / Fold change vs veh, SLMO2 / RFU, ABCC4 / Fold change vs veh, ABCC4 / RFU, LOC101060439 /// RAP1B / Fold change vs veh, LOC101060439 /// RAP1B / RFU, RFX7 / Fold change vs veh, RFX7 / RFU, GTPBP10 / Fold change vs veh, GTPBP10 / RFU, CNEP1R1 / Fold change vs veh, CNEP1R1 / RFU, BIVM-ERCC5 /// ERCC5 / Fold change vs veh, BIVM-ERCC5 /// ERCC5 / RFU, ILF3 / Fold change vs veh, ILF3 / RFU 11762660_at / Fold change /veh 11762660_at / RFU VCAN (11757783_s_at) / Fold change /veh VCAN (11757783_s_at) / RFU DDX43 (11728927_at) / Fold change /veh DDX43 (11728927_at) / RFU KRT8 (11758188_x_at) / Fold change /veh KRT8 (11758188_x_at) / RFU NKD1 (11759106_at) / Fold change /veh NKD1 (11759106_at) / RFU SRD5A1 (11742802_a_at) / Fold change /veh SRD5A1 (11742802_a_at) / RFU TPSAB1 /// TPSB2 (11721975_s_at) / Fold change /veh TPSAB1 /// TPSB2 (11721975_s_at) / RFU GSTM3 (11746129_a_at) / Fold change /veh GSTM3 (11746129_a_at) / RFU IL23R (11737362_x_at) / Fold change /veh IL23R (11737362_x_at) / RFU TMEM51 (11727254_a_at) / Fold change /veh TMEM51 (11727254_a_at) / RFU PIWIL2 (11732686_x_at) / Fold change /veh PIWIL2 (11732686_x_at) / RFU ORM1 (11744905_x_at) / Fold change /veh ORM1 (11744905_x_at) / RFU CCDC152 (11743942_at) / Fold change /veh CCDC152 (11743942_at) / RFU ECM1 (11717891_a_at) / Fold change /veh ECM1 (11717891_a_at) / RFU IL23R (11748794_a_at) / Fold change /veh IL23R (11748794_a_at) / RFU TNFAIP8L3 (11732012_x_at) / Fold change /veh TNFAIP8L3 (11732012_x_at) / RFU MBOAT4 (11741988_at) / Fold change /veh MBOAT4 (11741988_at) / RFU 11764193_at / Fold change /veh 11764193_at / RFU TMEM53 (11763286_at) / Fold change /veh TMEM53 (11763286_at) / RFU MAGEB2 (11727129_at) / Fold change /veh MAGEB2 (11727129_at) / RFU TMEM200A (11744735_a_at) / Fold change /veh TMEM200A (11744735_a_at) / RFU CCDC152 (11751479_a_at) / Fold change /veh CCDC152 (11751479_a_at) / RFU FAM211A (11726209_a_at) / Fold change /veh FAM211A (11726209_a_at) / RFU RGS16 (11746705_a_at) / Fold change /veh RGS16 (11746705_a_at) / RFU VCAN (11755009_s_at) / Fold change /veh VCAN (11755009_s_at) / RFU RHOB (11743442_s_at) / Fold change /veh RHOB (11743442_s_at) / RFU RGS16 (11720943_a_at) / Fold change /veh RGS16 (11720943_a_at) / RFU RGS16 (11720944_at) / Fold change /veh RGS16 (11720944_at) / RFU, VPS4B / Fold change vs veh, VPS4B / RFU, CREB1 / Fold change vs veh, CREB1 / RFU, DNAJC13 / Fold change vs veh, DNAJC13 / RFU, GNAQ / Fold change vs veh, GNAQ / RFU, CDK5R1 / Fold change vs veh, CDK5R1 / RFU, ZRANB3 / Fold change vs veh, ZRANB3 / RFU, CUL4A / Fold change vs veh, CUL4A / RFU, CCNY / Fold change vs veh, CCNY / RFU, UFL1 / Fold change vs veh, UFL1 / RFU, COG3 / Fold change vs veh, COG3 / RFU, DIAPH2 / Fold change vs veh, DIAPH2 / RFU, SKA2 / Fold change vs veh, SKA2 / RFU, AFF3 / Fold change vs veh, AFF3 / RFU, LMF1 / Fold change vs veh, LMF1 / RFU, IPO11 / Fold change vs veh, IPO11 / RFU, DFFB / Fold change vs veh, DFFB / RFU, FOXP1 / Fold change vs veh, FOXP1 / RFU, CARD8 / Fold change vs veh, CARD8 / RFU, STRN3 / Fold change vs veh, STRN3 / RFU, ADK / Fold change vs veh, ADK / RFU, RASSF2 / Fold change vs veh, RASSF2 / RFU, WIPF1 / Fold change vs veh, WIPF1 / RFU, LARP1B / Fold change vs veh, LARP1B / RFU, RASA1 / Fold change vs veh, RASA1 / RFU, RB1 / Fold change vs veh, RB1 / RFU, PPFIA1 / Fold change vs veh, PPFIA1 / RFU, MAT2A / Fold change vs veh, MAT2A / RFU, CCT5 / Fold change vs veh, CCT5 / RFU, WDR92 / Fold change vs veh, WDR92 / RFU, CUX1 / Fold change vs veh, CUX1 / RFU, TTC7A / Fold change vs veh, TTC7A / RFU, TMEM135 / Fold change vs veh, TMEM135 / RFU, DEPTOR / Fold change vs veh, DEPTOR / RFU, CPM / Fold change vs veh, CPM / RFU, DNAJB6 / Fold change vs veh, DNAJB6 / RFU, CACNA2D3 / Fold change vs veh, CACNA2D3 / RFU, DTX4 / Fold change vs veh, DTX4 / RFU, TFCP2 / Fold change vs veh, TFCP2 / RFU, GMCL1 /// GMCL1P1 / Fold change vs veh, GMCL1 /// GMCL1P1 / RFU, AEBP2 / Fold change vs veh, AEBP2 / RFU, SNHG1 /// SNORD22 /// SNORD25 /// SNORD26 /// SNORD27 /// SNORD28 /// SNORD29 /// SNORD31 / Fold change vs veh, SNHG1 /// SNORD22 /// SNORD25 /// SNORD26 /// SNORD27 /// SNORD28 /// SNORD29 /// SNORD31 / Fold change (Aza/veh), C12orf56 (ProbeSet 11735607_a_at) / Fold change (ACY-1035/veh), C12orf56 (ProbeSet 11735607_a_at) / Fold change (Aza/veh), FGFR1OP (ProbeSet 11751329_s_at) / Fold change (ACY-1035/veh), FGFR1OP (ProbeSet 11751329_s_at) / Fold change (Aza/veh), VPS36 (ProbeSet 11739960_a_at) / Fold change (ACY-1035/veh), VPS36 (ProbeSet 11739960_a_at) / RFU SYPL1 (11715823_x_at) / Fold change /veh SYPL1 (11715823_x_at) / RFU IGFBP7 (11715501_s_at) / Fold change /veh IGFBP7 (11715501_s_at) / RFU REEP3 (11722064_at) / Fold change /veh REEP3 (11722064_at) / RFU IGLL1 (11728026_x_at) / Fold change /veh IGLL1 (11728026_x_at): dose or concentration left out as unconfirmed. Type of assay: cell-based, human. The conditions noted are these: ProbeSet 11758440_s_at; LIST B.

Each structure is given as a SMILES string.

On to `Nc1ncn([C@@H]2O[C@H](CO)[C@@H](O)[C@H]2O)c(=O)n1` [azacitidine], for which the “RFU, RFX7” value is 45.74 RFU.

Values taken from publication PMC5218480 (PLoS ONE, 2017).
